In patent US20260138958A1, “SUBSTITUTED N-PHENYLURACILS AND SALTS THEREOF, AND USE THEREOF AS HERBICIDAL ACTIVE SUBSTANCES” (Bayer Aktiengesellschaft, priority 2022, published 2026):

What was measured:
Assay type in all cases: in vivo
[1] = test system: Abutilon theophrasti (ABUTH); assay: Post-emergence herbicidal action, greenhouse pot test
In short: (§1)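 Weeds grown in sandy loam under controlled greenhouse conditions were sprayed at the one-leaf stage, 2 to 3 weeks after sowing, with WP or EC formulations as aqueous suspension or emulsion plus 0.5% additive at 600 l/ha water. Damage was scored visually after about 3 weeks versus untreated controls (0% = like control, 100% = dead).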

[2] = test system: Alopecurus myosuroides (ALOMY); assay: as above
In short: as §1

[3] = test system: Amaranthus retroflexus (AMARE); assay: as above
In short: as §1

[4] = test system: Echinochloa crus-galli (ECHCG); assay: as above
In short: as §1

[5] = test system: Pharbitis purpurea (PHBPU); assay: as above
In short: as §1

[6] = test system: Polygonum convolvulus (POLCO); assay: as above
In short: as §1

Setaria viridis (SETVI) = assay: as above
In short: as §1

[7] = test system: Tripleurospermum inodorum (MATIN); assay: as above
In short: as §1

Veronica persica (VERPE) = assay: as above
In short: as §1

Viola tricolor (VIOTR) = assay: as above
In short: as §1

Oryza sativa (ORYSA) = assay: Post-emergence crop plant compatibility, greenhouse pot test; conditions: Oryza sativa, in vivo
In short: (§2)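 Crops grown in sandy loam in the greenhouse were sprayed post-emergence at the one-leaf stage, 2–3 weeks after sowing, with WP or EC formulations plus 0.5% additive at 600 l/ha water. Damage was rated visually after about 3 weeks against untreated controls (0% = like control, 100% = dead).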

[8] = test system: Triticum aestivum (TRZAS); assay: as above
In short: as §2

Zea mays (ZEAMX) = assay: as above; conditions: Zea mays, in vivo
In short: as §2

Bassia scoparia (KCHSC) = assay: Post-emergence herbicidal action, greenhouse pot test
In short: as §1

[9] = test system: Digitaria sanguinalis (DIGSA); assay: as above
In short: as §1

Lolium rigidum (LOLRI) = assay: as above
In short: as §1

Cn1c(C(F)(F)F)cc(=O)n(-c2cc(Oc3ccccc3OCC(=O)OCC3CC3)c(C#N)cc2F)c1=O [I.9-1, Cyclopropylmethyl (2-{2-cyano-4-fluoro-5-[3-methyl-2,6-dioxo-4-(trifluoromethyl)-3,6-dihydropyrimidin-1(2H)-yl]phenoxy}phenoxy)acetate]
20%: Post-emergence effect at 20 g/ha against TRZAS in % ([8]; Triticum aestivum, in vivo) | Post-emergence effect at 5 g/ha against ZEAMX in % (Zea mays (ZEAMX))
0%: Post-emergence effect at 1.25 g/ha against ORYSA in % (Oryza sativa (ORYSA)) | Post-emergence effect at 5 g/ha against ORYSA in % (Oryza sativa (ORYSA)) | Post-emergence effect at 20 g/ha against ORYSA in % (Oryza sativa (ORYSA)) | Post-emergence effect at 1.25 g/ha against TRZAS in % ([8]; Triticum aestivum, in vivo)
80%: Post-emergence effect at 1.25 g/ha against ECHCG in % ([4]; 1.25 g/ha) | pest or weed control at 5 g/ha ([6]; Fallopia convolvulus, 504 h, 5 g/ha, read-out: Post-emergence effect at 5 g/ha against POLCO in %) | Post-emergence effect at 1.25 g/ha against SETVI in % (Setaria viridis (SETVI)) | Post-emergence effect at 5 g/ha against MATIN in % [7] | pest or weed control at 20 g/ha ([7]; Tripleurospermum inodorum, 504 h, 20 g/ha, read-out: Post-emergence effect at 20 g/ha against MATIN in %)
100%: Post-emergence effect at 1.25 g/ha against ABUTH in % [1] | pest or weed control at 5 g/ha ([1]; Abutilon theophrasti, 504 h, 5 g/ha, read-out: Post-emergence effect at 5 g/ha against ABUTH in %) | pest or weed control at 20 g/ha ([1]; Abutilon theophrasti, 504 h, 20 g/ha, read-out: Post-emergence effect at 20 g/ha against ABUTH in %) | Post-emergence effect at 5 g/ha against ALOMY in % [2] | pest or weed control at 20 g/ha ([2]; Alopecurus myosuroides, 504 h, 20 g/ha, read-out: Post-emergence effect at 20 g/ha against ALOMY in %) | pest or weed control at 1.25 g/ha ([3]; Amaranthus retroflexus, 504 h, 1.25 g/ha, read-out: Post-emergence effect at 1.25 g/ha against AMARE in %) | pest or weed control at 5 g/ha ([3]; Amaranthus retroflexus, 504 h, 5 g/ha, read-out: Post-emergence effect at 5 g/ha against AMARE in %) | pest or weed control at 20 g/ha ([3]; Amaranthus retroflexus, 504 h, 20 g/ha, read-out: Post-emergence effect at 20 g/ha against AMARE in %) | Post-emergence effect at 5 g/ha against ECHCG in % [4] | pest or weed control at 20 g/ha ([4]; Echinochloa crus-galli, 504 h, 20 g/ha, read-out: Post-emergence effect at 20 g/ha against ECHCG in %) | pest or weed control at 5 g/ha ([5]; Ipomoea purpurea, 504 h, 5 g/ha, read-out: Post-emergence effect at 5 g/ha against PHBPU in %) | pest or weed control at 20 g/ha ([5]; Ipomoea purpurea, 504 h, 20 g/ha, read-out: Post-emergence effect at 20 g/ha against PHBPU in %) | pest or weed control at 20 g/ha ([6]; Fallopia convolvulus, 504 h, 20 g/ha, read-out: Post-emergence effect at 20 g/ha against POLCO in %) | pest or weed control at 5 g/ha (Setaria viridis (SETVI); Setaria viridis, 504 h, 5 g/ha, read-out: Post-emergence effect at 5 g/ha against SETVI in %) | pest or weed control at 20 g/ha (Setaria viridis (SETVI); Setaria viridis, 504 h, 20 g/ha, read-out: Post-emergence effect at 20 g/ha against SETVI in %) | pest or weed control at 5 g/ha (Veronica persica (VERPE); Veronica persica, 504 h, 5 g/ha, read-out: Post-emergence effect at 5 g/ha against VERPE in %) | pest or weed control at 20 g/ha (Veronica persica (VERPE); Veronica persica, 504 h, 20 g/ha, read-out: Post-emergence effect at 20 g/ha against VERPE in %) | Post-emergence effect at 1.25 g/ha against VIOTR in % (Viola tricolor (VIOTR)) | Post-emergence effect at 5 g/ha against VIOTR in % (Viola tricolor (VIOTR)) | pest or weed control at 20 g/ha (Viola tricolor (VIOTR); Viola tricolor, 504 h, 20 g/ha, read-out: Post-emergence effect at 20 g/ha against VIOTR in %)
10%: Post-emergence effect at 1.25 g/ha against ZEAMX in % (Zea mays (ZEAMX))

Cn1c(C(F)(F)F)cc(=O)n(-c2cc(Oc3ccccc3OCC(=O)OCC3CC3(F)F)c(Cl)cc2F)c1=O (stereo not drawn) [I.7-8]
20%: Post-emergence effect at 1.25 g/ha against TRZAS in % ([8]; crop plant, post-emergence, 1.25 g/ha)
100%: Post-emergence effect at 1.25 g/ha against ABUTH in % [1] | Post-emergence effect at 5 g/ha against ABUTH in % ([1]; 5 g/ha) | Post-emergence effect at 20 g/ha against ABUTH in % ([1]; 20 g/ha) | Post-emergence effect at 20 g/ha against ALOMY in % ([2]; 20 g/ha) | Post-emergence effect at 1.25 g/ha against AMARE in % ([3]; 1.25 g/ha) | Post-emergence effect at 5 g/ha against AMARE in % ([3]; 5 g/ha) | Post-emergence effect at 20 g/ha against AMARE in % ([3]; 20 g/ha) | Post-emergence effect at 1.25 g/ha against KCHSC in % (Bassia scoparia (KCHSC); 1.25 g/ha) | Post-emergence effect at 5 g/ha against KCHSC in % (Bassia scoparia (KCHSC); 5 g/ha) | Post-emergence effect at 20 g/ha against KCHSC in % (Bassia scoparia (KCHSC); 20 g/ha) | Post-emergence effect at 1.25 g/ha against DIGSA in % ([9]; 1.25 g/ha) | Post-emergence effect at 5 g/ha against DIGSA in % ([9]; 5 g/ha) | Post-emergence effect at 20 g/ha against DIGSA in % ([9]; 20 g/ha) | Post-emergence effect at 5 g/ha against ECHCG in % [4] | Post-emergence effect at 20 g/ha against ECHCG in % ([4]; 20 g/ha) | Post-emergence effect at 5 g/ha against PHBPU in % ([5]; 5 g/ha) | Post-emergence effect at 20 g/ha against PHBPU in % ([5]; 20 g/ha) | Post-emergence effect at 5 g/ha against POLCO in % ([6]; 5 g/ha) | Post-emergence effect at 20 g/ha against POLCO in % ([6]; 20 g/ha) | Post-emergence effect at 1.25 g/ha against SETVI in % (Setaria viridis (SETVI)) | Post-emergence effect at 5 g/ha against SETVI in % (Setaria viridis (SETVI); 5 g/ha) | Post-emergence effect at 20 g/ha against SETVI in % (Setaria viridis (SETVI); 20 g/ha) | Post-emergence effect at 5 g/ha against MATIN in % [7] | Post-emergence effect at 20 g/ha against MATIN in % ([7]; 20 g/ha) | Post-emergence effect at 1.25 g/ha against VERPE in % (Veronica persica (VERPE); 1.25 g/ha) | Post-emergence effect at 5 g/ha against VERPE in % (Veronica persica (VERPE); 5 g/ha) | Post-emergence effect at 20 g/ha against VERPE in % (Veronica persica (VERPE); 20 g/ha) | Post-emergence effect at 1.25 g/ha against VIOTR in % (Viola tricolor (VIOTR)) | Post-emergence effect at 5 g/ha against VIOTR in % (Viola tricolor (VIOTR)) | Post-emergence effect at 20 g/ha against VIOTR in % (Viola tricolor (VIOTR); 20 g/ha)
80%: Post-emergence effect at 5 g/ha against ALOMY in % [2] | Post-emergence effect at 20 g/ha against LOLRI in % (Lolium rigidum (LOLRI)) | Post-emergence effect at 1.25 g/ha against PHBPU in % ([5]; 1.25 g/ha)
